{"source": "patent US11378572B2", "about": "“Therapeutic agent for immune cell migration-caused disease and method for screening same” (ZYMEDI CO., LTD., priority 2017, dated 2022)", "key": {"ear skin wound model": {"test_system": "ear skin wound model", "assay": "Ear skin wound model (acute inflammatory response)", "type": "in vivo, CX3CR1-GFP mouse", "conditions": "100 mg/kg oral once daily, 4 days", "method": "To investigate the effect of the inhibitor of KRS translocation to the plasma membranes during monocyte infiltration in acute inflammatory responses, an ear skin wound model using CX3CR1-GFP mouse (Stock no. #005582, Jackson Laboratory, Bar Harbor, USA) was prepared. Monocytes, macrophages and Langerhans cells appear green in CX3R1-GFP mice. Mice were administered orally with vehicle or BC-KI-00053 (100 mg/kg, dissolved in vehicle, once daily) for a total of 4 days from 2 days prior to imaging (D−2, D−1, D−0, D+1). For a vehicle, corn oil:polyethylene glycol 400:Tween 80:methyl cellulose (1%)=20:30:1:49 was used. A 31G syringe was used to puncture the skin of the ear (time D−0) to induce acute inflammatory responses. Blood vessels were labeled using anti-CD31 antibody bound to Alexa Flour 555 (identifiable as red). Confocal microscopy was used as an imaging equipment."}, "[1]": {"test_system": "liver ischemia-reperfusion injury model", "assay": "Liver ischemia-reperfusion injury model", "type": "in vivo, CX3CR1-GFP mice", "conditions": "100 mg/kg oral once daily, 3 days; 24 hours of reperfusion", "method": "A liver ischemia-reperfusion injury model was prepared using CX3CR1-GFP mice to investigate the effect of inhibitors of KRS translocation to the plasma membrane on the monocyte infiltration during ischemic immune responses. Monocytes, macrophages and Kupffer's cells appear green in CX3CR1-GFP mice. Mice were orally administered with vehicle or BC-KI-00053 (100 mg/kg, dissolved in vehicle, once daily) for a total of three days beginning two days before imaging (D-2, D-1, D-0). For vehicle, corn oil:polyethylene glycol 400: Tween 80: methyl cellulose (1%)=20:30:1:49 was used. On day 3 of oral administration (D-0), triad (bile duct, hepatic artery, […]) occlusion was performed using a 6-0 suture as shown in FIG. 8a. Triad occlusion was performed for 30 minutes to induce acute inflammation, and 3 g of Eppendorf tubes were suspended from both ends of the suture. Suture was removed and the ischemic inflammation site was observed immediately after reperfusion (0 hour) and 24 hours later. At this time, blood vessels were labeled with Alexa Flour 555-bound anti-CD31 antibody for repeated imaging (identifiable as red). Two-photon microscope was used as an imaging equipment."}, "[2]": {"test_system": "pulmonary arterial hypertension (PAH) model", "assay": "Monocrotaline pulmonary arterial hypertension (PAH) model, BC-KI-00053", "type": "in vivo, SD rats", "method": "In order to induce PAH in 6-week-old female SD rats (Oriental Bio), 60 mg/kg of MCT (monocrotaline), a substance that causes pulmonary hypertension through pulmonary arterial injury, was injected subcutaneously. Then animals were divided into four groups (5 animals per group), and orally administered with vehicle, sildenafil (25 mg/kg, once daily) or BC-KI-00053 (25 or 50 mg/kg, dissolved in vehicle, once daily) for 3 weeks. Vehicle was corn oil:polyethylene glycol 400:Tween 80:methyl cellulose (1%)=20:30:1:49.\nThree weeks later, rats were anesthetized with isoflurane, and blood flow and pressure were measured using an MPVS cardiovascular pressure and volume system (model name: MPVS Ultra, manufactured by Millar Instruments). Right ventricular systolic pressure (RVESP) and diastolic pressure, left ventricular systolic pressure and diastolic pressure were measured using a dedicated catheter (Mikro-Tip rat pressure catheter, manufactured by Millar Instruments). Cardiac output was measured using a perivascular blood flow probe (Transonic® Flowprobes, manufactured by […]), and experimental techniques were performed in the same manner as described in the literature: Pacher P, Nagayama T, Mukhopadhyay P, Batkai S, Kass D A. Measurement of cardiac function using pressure-volume conductance catheter technique in mice and rats. Nat Protoc 2008, 3(9):1422-34.\nIHC staining for CD68, a monocyte/macrophage marker, was performed using lung tissues from each experimental group. Collected lungs were fixed in PFA (paraformaldehyde) according to the conventional procedure, and then embedded in paraffin through water washing, dehydration, and tissue clearing processes. Lung tissue paraffin blocks of rats were cut to a thickness of […] and slides were prepared. Thereafter, staining was performed as follows. First, three times for 5 minutes xylene treatment, 2 minutes in 100% ethanol twice, 95% ethanol, 90% ethanol, 70% ethanol, DW treatment for 2 minutes in this order and washed with PBS for 5 minutes (2 times). After treatment with 0.3% H2O2 (10 minutes), slides were washed twice with PBS for 5 minutes. Then slides were soaked in 0.01M citrate buffer of pH 6.0 and microwaved for 3 minutes and 30 seconds, then antigen retrieval of cooling for 10 seconds and reheating for 10 seconds was repeated for 10 minutes followed by 20 minutes of cooling at room temperature. Afterwards, slides were washed three times for 5 minutes with PBS-T (0.03% Triton-X). After 30 minutes blocking (2% BSA & 2% goat serum in PBS) at 4° C. anti-CD68 antibody (1:200, Abcam, ab31630) was treated overnight at 4° C. After washing three times with PBS-T for 5 minutes, slides were treated with polymer-HRP anti-mouse envision kit (DAKO) for 1 hour at 4° C. After washing 3 times with PBS-T for 5 minutes, 1 ml of DAB substrate buffer and 20 ul of DAB chromogen were mixed and treated with tissue. After 10 minutes when colors developed, slides were washed twice with tertiary distilled water. Stained tissues were treated with Mayer's hematoxylin (Sigma) for 1 minute, and then treated in the order of 70% ethanol, 90% ethanol, 95% ethanol, and 100% ethanol, twice for 2 minutes for each solution. Finally, after three times of xylene treatment for 5 minutes, cover slides were mounted using a mounting solution, and observed with an optical microscope."}, "[3]": {"test_system": "129Sv/J Alport mice (COL4A3 knockout mouse)", "assay": "Animal model of Alport syndrome", "type": "in vivo, 129Sv/J mice", "conditions": "100 mg/kg oral once a day, 4 weeks", "method": "The experiment was conducted using 129Sv/J mice (Boys town hospital). Animals groups were (i) 129Sv/J wild-type mice with vehicle administration (0.5% methyl cellulose suspension), (ii) 129Sv/J Alport mice (COL4A3 knockout mouse, Cosgrove D et al., Genes Dev. 1996 Dec. 1, 10(23):2981-92) with vehicle administration (0.5% methyl cellulose suspension) (iii) 129Sv/J Alport mice with BC-KI-00053 administration. Each animal group consists of two mice. BC-KI-00053 was dissolved in 0.5% methyl cellulose suspension and orally administered at a concentration of 100 mg/kg, and kidney fibrosis and the immune cell infiltration were evaluated. Each animal group was treated with a control substance or a test agent once a day from 3 weeks of age for a total of 4 weeks. After 4 weeks of treatment, kidney paraffin sections were stained with collagen I (a marker of fibrosis) and CD45 to observe the extent of leukocyte infiltration. Evaluation of fibrosis and infiltration was performed in the same manner as in the above examples."}, "[4]": {"conditions": "25 or 50 mg/kg oral once daily 3 weeks"}}, "data": [{"smiles": "COc1ccc(CCN(Cc2ccc(C(=O)O)cc2)c2nc3cccc(F)c3s2)cc1", "note": "[BC-KI-00053, 4-({(7-fluorobenzo[d]thiazol-2-yl)[2-(4-methoxyphenyl)ethyl]amino}methyl)benzoic acid]", "values": [{"measurement": "infiltration of monocytes and macrophages around skin wound", "setting": "ear skin wound model", "result": "significantly reduced"}, {"measurement": "monocyte/macrophage infiltration into occluded liver area", "setting": "[1]", "result": "significantly reduced"}, {"measurement": "left ventricular end systolic pressure (LVESP)", "setting": "[2]; 50 mg/kg, not statistically significant", "result": "increased"}, {"measurement": "left ventricular end systolic pressure (LVESP)", "setting": "[2]; [4]", "result": "no decrease"}, {"measurement": "lung tissue infiltration of monocytes/macrophages (CD68 IHC)", "setting": "[2]; [4]", "result": "clearly reduced"}, {"measurement": "RVESP (right ventricular systolic pressure)", "setting": "[2]; 25 or 50 mg/kg oral once daily 3 weeks, concentration dependent", "result": "significantly reduced"}, {"measurement": "reduction of lung monocyte/macrophage infiltration compared with sildenafil", "setting": "[2]; CD68 IHC", "result": "noticeably superior to sildenafil"}, {"measurement": "tendency to affect systemic artery pressure compared with sildenafil", "setting": "[2]; rat, in vivo", "result": "lower tendency"}, {"measurement": "fibrosis in the kidneys (collagen I)", "setting": "[3]", "result": "reduced down to the normal level"}, {"measurement": "leukocyte infiltration in the kidneys (CD45)", "setting": "[3]", "result": "reduced down to the normal level"}]}]}
